Earlier results on two molecules are cited in US7989624B2, “Aryl spirolactam CGRP receptor antagonists” (Merck Sharp & Dohme Corp., priority 2004, dated 2011).

Where no end group is shown, it is not given here.

One series has as its system marmoset. The settings on record: electrical stimulation of the trigeminal ganglion.
Another series relates to migraine. The settings on record: clinical studies, intravenously administered.
The subject of the next series is rats. The note with it: electrical stimulation of the dura mater, prior administration.
The next series has as its system rat. The note with it: trigeminal ganglion stimulation.

With `NCCCC[C@H](NC(=O)[C@@H](Cc1cc(Br)c(O)c(Br)c1)NC(=O)N1CCC(N2Cc3ccccc3NC2=O)CC1)C(=O)N1CCN(c2ccncc2)CC1` [BIBN4096BS], in the series on marmoset, the “increase in facial blood flow” value is listed as “could be blocked”. In addition, the “acute treatment for migraine” value with migraine is “safe and effective”.
As for “CGRP(8-37): a fragment of CGRP that lacks seven N-terminal amino acid residues; a peptide CGRP antagonist (VTHRLAGLLSRSGGVVKNNFVPTNVGSKAF; ends and bridges not checked; UniProt P06881 90-119, looked up, fragment)”, the “increase of the diameter of the middle meningeal artery” value in the series with rats is given as “blocked”. In the series with rat, the “increased facial blood flow” value was “inhibited”.
